From US20250170266A1 (ZYMEWORKS BC INC., priority 2022, published 2025) come the findings set out here.

The structures appear in SMILES notation. pEC50: −log10 of the molar value. Like-named read-outs stand apart in the source and are kept apart here.

What all share (assay type): cell-based
Test [1] addresses T1, mTLR7 (Mus musculus, UniProt P58681).
T1 construct: host or cells: HEK-Blue mTLR7 reporter cells (HEK293-derived, own knowledge)
T1 sequence (P58681 27-1050): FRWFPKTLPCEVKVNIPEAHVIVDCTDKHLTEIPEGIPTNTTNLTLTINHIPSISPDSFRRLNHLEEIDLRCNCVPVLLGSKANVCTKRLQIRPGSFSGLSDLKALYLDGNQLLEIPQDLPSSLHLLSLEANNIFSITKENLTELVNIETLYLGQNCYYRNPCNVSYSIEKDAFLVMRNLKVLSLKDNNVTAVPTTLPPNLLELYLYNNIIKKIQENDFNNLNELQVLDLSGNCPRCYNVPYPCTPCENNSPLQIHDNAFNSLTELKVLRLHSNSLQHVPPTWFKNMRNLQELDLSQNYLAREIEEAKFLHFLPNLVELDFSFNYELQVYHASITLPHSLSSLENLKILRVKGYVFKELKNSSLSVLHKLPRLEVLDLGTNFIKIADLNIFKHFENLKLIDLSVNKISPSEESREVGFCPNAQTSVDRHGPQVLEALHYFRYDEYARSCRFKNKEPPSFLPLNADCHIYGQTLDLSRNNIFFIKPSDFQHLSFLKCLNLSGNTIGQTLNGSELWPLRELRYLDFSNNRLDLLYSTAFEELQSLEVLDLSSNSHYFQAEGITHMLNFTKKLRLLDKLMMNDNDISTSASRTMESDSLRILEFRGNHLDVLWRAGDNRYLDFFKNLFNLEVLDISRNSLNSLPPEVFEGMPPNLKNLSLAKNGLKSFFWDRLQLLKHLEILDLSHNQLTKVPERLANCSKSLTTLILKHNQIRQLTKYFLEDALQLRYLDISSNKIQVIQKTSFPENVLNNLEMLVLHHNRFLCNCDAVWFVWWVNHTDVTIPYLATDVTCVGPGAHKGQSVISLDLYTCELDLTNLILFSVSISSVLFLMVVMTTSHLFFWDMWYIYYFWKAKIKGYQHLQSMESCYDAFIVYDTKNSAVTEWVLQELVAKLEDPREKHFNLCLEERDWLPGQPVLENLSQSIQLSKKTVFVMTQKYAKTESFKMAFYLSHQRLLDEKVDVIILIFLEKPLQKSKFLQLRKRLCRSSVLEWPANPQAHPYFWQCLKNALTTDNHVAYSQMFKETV
Briefly: Reporter Gene Assay (RGA), HEK-Blue mTLR7 reporter cells, SEAP readout. Particulars: overnight incubation, SEAP absorbance 620 nm. The procedure: (§1) 1.5×10^4 HEK-Blue™ hTLR7 (Invivogen, San Diego, CA) or HEK-Blue™ mTLR7 (Invivogen, San Diego, CA) reporter cells were treated with a titration series of test compound (4-fold titration from […], 11 points). Compounds were initially diluted to 1 mM in DMSO and subsequently serial-diluted in assay media (HEK-Blue™ Detection; Invivogen, San Diego, CA). Cells with test compound were incubated overnight at 37° C.+5% CO2, and the amount of secreted embryonic alkaline phosphatase (SEAP) was determined by measuring absorbance (620 nm) using a Synergy™ H1 microplate reader.
(§2) Each assay included a positive control compound (referred to herein as “benchmark,” see, e.g., TABLE 3 below, and taken from International Patent Publication No. WO2017/072662, structure shown below) and a negative control (growth medium). […] The structure of the benchmark compound from International Patent Publication No. WO 2017/072662 is as follows: […]

In test [2] the test system is Mouse splenocytes. Briefly: Mouse Splenocyte Assay, cytokine release (HTRF). Particulars: 24 hours, mIL6 in supernatant; for pEC50: Splenocyte, read-out: Splenocyte IL6 EC50. The procedure: Mouse splenocytes were isolated from fresh mouse spleens. Briefly, spleens were harvested from female balb/c nude mice and transferred to a 70 μm cell strainer. The cell strainer was subsequently placed in a 6-well suspension culture plate containing 5 mL media (RPMI+10% FBS). The spleens were crushed against the cell strainer using the flat end of a 10 mL syringe plunger and the cell strainer was washed with 5 mL media. The cell strainer was discarded, and the cell suspension was washed in PBS. Red blood cells were removed using PharmaLyse (BD). The cell suspension was washed in media, resuspended in CryoStor® CS10 ([…]) and frozen. On assay day, mouse splenocytes were thawed in warm assay buffer (RPMI+10% FBS). Cells were spun down and resuspended in fresh assay buffer. 100,000 cells were added to each well of plates containing test compound. For test compound preparation, each compound was initially diluted to 1 mM in DMSO and further diluted in assay buffer. A 4-fold 11-point titration starting from 15 μM was performed. Cells were incubated with test compound at 37° C.+5% CO2 for 24 hours before supernatant was harvested. Murine IL6 (mIL6) and murine TNFα (mTNFα) were quantified in the supernatant using homogeneous time resolved fluorescence (Cisbio).
as §2

For test [3], the target named is T2, hTLR7 (Homo sapiens, UniProt Q9NYK1).
T2 construct: host or cells: HEK-Blue hTLR7 reporter cells (HEK293-derived, own knowledge)
T2 sequence (Q9NYK1 27-1049): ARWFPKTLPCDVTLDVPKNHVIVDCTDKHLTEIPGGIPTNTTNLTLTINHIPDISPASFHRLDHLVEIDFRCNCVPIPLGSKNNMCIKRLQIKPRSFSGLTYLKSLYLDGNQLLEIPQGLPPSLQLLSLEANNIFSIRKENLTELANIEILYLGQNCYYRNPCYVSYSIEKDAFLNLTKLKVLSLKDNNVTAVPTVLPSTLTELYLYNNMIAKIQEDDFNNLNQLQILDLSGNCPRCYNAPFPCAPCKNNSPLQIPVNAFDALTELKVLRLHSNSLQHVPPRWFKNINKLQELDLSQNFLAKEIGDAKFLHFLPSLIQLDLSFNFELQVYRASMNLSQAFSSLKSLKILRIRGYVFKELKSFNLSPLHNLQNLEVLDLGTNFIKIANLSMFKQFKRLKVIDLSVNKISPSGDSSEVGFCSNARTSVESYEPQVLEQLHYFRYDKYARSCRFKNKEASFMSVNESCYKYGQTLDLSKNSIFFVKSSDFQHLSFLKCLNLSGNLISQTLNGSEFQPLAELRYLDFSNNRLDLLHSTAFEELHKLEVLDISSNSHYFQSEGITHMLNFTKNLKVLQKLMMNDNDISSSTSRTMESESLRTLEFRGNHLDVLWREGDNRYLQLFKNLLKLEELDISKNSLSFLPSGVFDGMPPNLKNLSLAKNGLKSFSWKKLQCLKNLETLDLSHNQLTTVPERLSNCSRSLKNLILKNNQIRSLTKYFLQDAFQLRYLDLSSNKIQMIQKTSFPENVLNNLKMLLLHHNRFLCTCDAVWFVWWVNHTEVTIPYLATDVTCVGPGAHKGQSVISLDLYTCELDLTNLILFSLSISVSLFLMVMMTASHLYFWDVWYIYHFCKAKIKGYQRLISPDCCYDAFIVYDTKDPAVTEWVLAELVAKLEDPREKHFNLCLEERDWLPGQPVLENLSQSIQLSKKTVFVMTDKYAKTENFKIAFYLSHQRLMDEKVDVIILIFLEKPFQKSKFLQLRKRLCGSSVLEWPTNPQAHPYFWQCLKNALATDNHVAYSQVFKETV
In words: Reporter Gene Assay (RGA), HEK-Blue hTLR7 reporter cells, SEAP readout. The conditions noted are these: overnight incubation, SEAP absorbance 620 nm. As for the experimental part:
as §1, §2

Test [4] relates to Human peripheral blood mononuclear cells (PBMCs). In words: Human PBMC Assay, cytokine release (HTRF). The conditions noted are these: 24 hours; for pEC50: PBMC.
Source text: Human peripheral blood mononuclear cells (PBMCs) were isolated from fresh Leukopak using magnetic separation. Briefly, erythrocytes and granulocytes were magnetically labeled with Erythrocyte Depletion MicroBeads (Miltenyi Biotec) and Granulocyte Depletion MicroBeads (Miltenyi Biotec), respectively. The cell suspension was loaded onto a Multi-24 Column Block (Miltenyi Biotec) and placed in the magnetic field of a MultiMACS Cell24 Separator Plus (Miltenyi Biotec). The unlabelled PBMCs were collected in the run through. PBMCs were resuspended in CryoStor® CS10 ([…]) and frozen. On the day before the assay, PBMCs were thawed in warm assay buffer (RPMI+10% FBS) and resuspended in assay buffer+10 ng/ml hIL3 (R&D Systems). Cells were rested at 37° C.+5% CO2 overnight. The following day, cells were spun down and resuspended in fresh assay buffer. 300,000 cells were added to each well of plates containing test compound. For test compound preparation, each compound was initially diluted to 1 mM in DMSO and further diluted in assay buffer. A 4-fold 11-point titration starting from 15 μM was performed. Cells were incubated with test compound at 37° C.+5% CO2 for 24 hours before supernatant was harvested. Human interleukin 6 (hIL6), human tumor necrosis factor alpha (hTNFα), and human interferon alpha (hIFNα) were quantified in the supernatant using homogeneous time resolved fluorescence (Cisbio).
as §2

[5] abbreviates: hIFNα in supernatant, EC50 values approximated and divided into groups, read-out: PBMC IFNa EC50.
[6] abbreviates: hIL6 in supernatant, read-out: PBMC IL6 EC50.

For `CCCCOc1nc(N)c2nc(O)n(Cc3ccc(CNC(CO)[C@@H](C)CC)cc3OC)c2n1` (stereo in doubt) [Compound 161, 6-amino-2-butoxy-9-(4-((((2R,3S)-1-hydroxy-3-methylpentan-2-yl)amino)-methyl)-2-methoxybenzyl)-9H-purin-8-ol], the pEC50 in test [1] is greater than 10.00; in test [2] it was 9.52; in test [3] it was greater than 10.00; in test [4] (setting [5]) it was greater than 10.00; in test [4] (setting [6]) it was 7.78.

Regarding `CCCCCNc1nc(N)nc2ccn(Cc3ccc(CN4CCN(CCNC(=O)CC(SCC(N)C(=O)O)C(=O)O)CC4)cc3OC)c12` (stereo not drawn) [Benchmark, reference compound], the values for the pEC50 in test [2], in test [4] (setting [5]) and in test [4] (setting [6]) were 6.65, 8.00 to 9.00 and 6.68, respectively.

For `CCOc1nc(N)c2nc(O)n(Cc3ccc(CN4CCNCC4)cc3OC)c2n1` [Compound 100, 6-amino-2-ethoxy-9-(2-methoxy-4-(piperazin-1-ylmethyl)benzyl)-9H-purin-8-ol], the pEC50 was 7.11 in test [1]; 5.53 in test [2]; 8.20 in test [3]; 8.00 to 9.00 in test [4] (setting [5]); 6.62 in test [4] (setting [6]).

For `CCOc1nc(N)c2nc(O)n(Cc3ccc(CNCC(C)(C)O)cc3OC)c2n1` [Compound 101, 6-amino-2-ethoxy-9-(4-(((2-hydroxy-2-methylpropyl)amino)methyl)-2-methoxybenzyl)-9H-purin-8-ol], the pEC50 in test [1] was 7.32; in test [2], 6.81; in test [3] it was 7.24; in test [4] (setting [5]), 9.00 to 10.00; in test [4] (setting [6]), 6.90.

Consider `CCOc1nc(N)c2nc(O)n(Cc3ccc(CN(CC)CC)cc3OC)c2n1` [Compound 102, 6-amino-9-(4-((diethylamino)methyl)-2-methoxybenzyl)-2-ethoxy-9H-purin-8-ol], for which the pEC50 in test [1] was 8.30; in test [2], 7.00; in test [3], 8.70; in test [4] (setting [5]) it was greater than 10.00; in test [4] (setting [6]), 7.16.

Turning to `CCOc1nc(N)c2nc(O)n(Cc3ccc(CNCCCCCO)cc3OC)c2n1` [Compound 103, 6-amino-2-ethoxy-9-(4-(((5-hydroxypentyl)amino)methyl)-2-methoxy-benzyl)-9H-purin-8-ol], the pEC50 in test [1] was 7.56; in test [2], 5.88; in test [3], 6.86; in test [4] (setting [5]), 9.00 to 10.00; in test [4] (setting [6]) it was 5.03.

Regarding `CCOc1nc(N)c2nc(O)n(Cc3ccc(CNCCCN4CCN(CCCN)CC4)cc3OC)c2n1` [Compound 104, 6-amino-9-(4-(((3-(4-(3-aminopropyl)piperazin-1-yl)propyl)amino)methyl)-2-methoxybenzyl)-2-ethoxy-9H-purin-8-ol], the pEC50 in test [1] is 5.99; in test [2], 5.87; in test [3] it was 5.88; in test [4] (setting [5]) it was less than 8.00; in test [4] (setting [6]), 6.22.

Regarding `CCOc1nc(N)c2nc(O)n(Cc3ccc(CN[C@@H](Cc4ccccc4)C(=O)O)cc3OC)c2n1` [Compound 117, (4-((6-amino-2-ethoxy-8-hydroxy-9H-purin-9-yl)methyl)-3-methoxybenzyl)-L-phenylalanine], the “Splenocyte IL6 EC50 (nM)” value in test [2] was “inactive”. The pEC50 in test [3] is 4.89; in test [4] (setting [5]) it was less than 8.00. Further, the “PBMC IL6 EC50 (nM)” value in test [4] (hIL6 in supernatant) was “inactive”.

`CCCCOc1nc(N)c2nc(O)n(Cc3ccc(CCN4CCC(CCN)CC4)cc3OC)c2n1` [Compound 178, 6-amino-9-(4-(2-(4-(2-aminoethyl)piperidin-1-yl)ethyl)-2-methoxybenzyl)-2-butoxy-9H-purin-8-ol]: the pEC50 in test [2] was 6.61; in test [3] it was 6.84; in test [4] (setting [5]), 8.00 to 9.00; in test [4] (setting [6]), 6.55.

For `CCCCOc1nc(N)c2nc(O)n(Cc3ccc(CCN4CCC(N)CC4)cc3OC)c2n1` [Compound 181, 6-amino-9-(4-(2-(4-aminopiperidin-1-yl)ethyl)-2-methoxybenzyl)-2-butoxy-9H-purin-8-ol], the pEC50 in test [2] was 6.63; in test [3], 8.35; in test [4] (setting [5]), less than 8.00. Moreover, in test [4] (hIL6 in supernatant), the “PBMC IL6 EC50 (nM)” value was “inactive”.
